We go through 6 molecules from paper PMC9937549 (Frontiers in tropical diseases, 2023).

Structures are written as SMILES. Converted amounts (≈) assume the structure as drawn. Where only a bound is given, the exact number is not on record here.

The nature of data set [1]: Kinetic aqueous solubility by CLND. The class given is physicochemical. Conditions: high-throughput CLND.
Another data set has as its system host B10R cells. The data set is classed as cell-based.
The test system of a further data set is HepG2 cells. Kind of data set: HepG2 cytotoxicity. The data set is classed as cell-based.
Data set [2] deals with L. donovani promastigotes. Kind of data set: Promastigote assay. As to conditions: read-out: Extracellular promastigote EC50; Leishmania donovani, 72 h. The class given is cell-based.
The test system of the next data set is L. major promastigotes. Kind of data set: Promastigote assay. The data set is classed as cell-based. Conditions: read-out: Extracellular promastigote EC50; Leishmania major, 72 h.
Data set [3] is classed as in vitro ADME. As to conditions: microsomes.
Data set [4] deals with L. donovani intracellular amastigotes infecting B10R cells. Kind of data set: Intracellular amastigote assay. The class given is cell-based. As to conditions: read-out: L. donovani EC50; intracellular amastigotes infecting B10R cells (UCSD assay), average of two biological replicates.
A further data set in a line: Whole blood stability. The data set is classed as in vitro ADME. Conditions: criterion: no % reduction over 120 min; racemate.
The subject of the next data set is THP-1 cells. Kind of data set: Host THP-1 cell cytotoxicity. The class given is cell-based, human. Conditions: for cytotoxicity to the host THP-1 cells (GI): primary screen, single point 10 μM; for CC50: read-out: Host (THP-1) cell CC50, UCSF assay.
Data set [5] has as its system L. major intracellular amastigotes. Kind of data set: Intracellular amastigote assay. The data set is classed as cell-based. As to conditions: read-out: Intracellular Amastigote EC50; Leishmania major, THP-1 host, 72 h.
The next data set can be described thus: FaSSIF solubility. The data set is classed as physicochemical. As to conditions: racemate.
Data set [6] is described as follows: Artificial membrane permeability. The data set is classed as in vitro ADME. Conditions: pH 7.4.
For data set [7], the system named is L. donovani intracellular amastigotes infecting THP-1 macrophages. Kind of data set: GSK intramacrophage L. donovani assay. The class given is cell-based, Leishmania donovani. As to conditions: read-out: LD AMMAC EC50; growth inhibition of L. donovani intracellular amastigotes infecting THP-1 macrophages (GSK).
The next data set in a line: Property forecast index. The data set is classed as physicochemical. As to conditions: ChromLogD7.4 + Aromatic rings.
The test system of the next data set is host THP-1 macrophages. Kind of data set: GSK LD MAC host cell toxicity readout of inMac assay. The class given is cell-based. Conditions: read-out: LD MAC EC50; cytotoxicity against host THP-1 macrophages (GSK).
A further data set can be described thus: Plasma protein binding. The data set is classed as in vitro ADME. As to conditions: racemate, rapid equilibrium dialysis.
Data set [8] relates to L. donovani intracellular amastigotes infecting THP-1 cells. Kind of data set: Intracellular amastigote assay. As to conditions: for EC50: read-out: Intracellular Amastigote EC50, Leishmania donovani, THP-1 host, 72 h; for inhibition of parasite growth (primary screen): single point 10 μM, L. donovani amastigotes in THP-1. The data set is classed as cell-based, Leishmania donovani.

In another data set the target is human serum albumin (Homo sapiens, UniProt P02768). Kind of data set: Human serum albumin. The class given is in vitro ADME. As to conditions: immobilized HSA column.
human serum albumin, sequence (P02768 25-609): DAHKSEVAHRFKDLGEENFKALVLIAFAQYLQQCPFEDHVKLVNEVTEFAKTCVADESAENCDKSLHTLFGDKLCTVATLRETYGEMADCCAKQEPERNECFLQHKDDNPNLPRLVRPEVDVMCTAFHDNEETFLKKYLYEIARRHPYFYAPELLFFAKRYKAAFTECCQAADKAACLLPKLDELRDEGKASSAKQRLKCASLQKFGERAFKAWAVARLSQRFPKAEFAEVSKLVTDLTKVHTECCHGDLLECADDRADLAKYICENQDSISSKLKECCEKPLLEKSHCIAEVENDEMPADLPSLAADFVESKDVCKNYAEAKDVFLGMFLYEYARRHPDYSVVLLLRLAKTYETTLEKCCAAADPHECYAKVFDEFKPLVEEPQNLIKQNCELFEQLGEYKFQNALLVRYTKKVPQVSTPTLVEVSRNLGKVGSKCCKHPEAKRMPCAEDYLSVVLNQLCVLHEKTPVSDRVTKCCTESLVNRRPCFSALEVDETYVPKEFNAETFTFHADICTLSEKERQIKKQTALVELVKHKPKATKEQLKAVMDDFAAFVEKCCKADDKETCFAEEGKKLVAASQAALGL
For data set [9], the system named is intramacrophage Leishmania. As to conditions: read-out: intramacrophage EC50; cited from earlier work.
Another data set has as its system host macrophage. Kind of data set: Host cell cytotoxicity in the same assay. The data set is classed as cell-based. Conditions: abstract.
In data set [10] the test system is intracellular parasites of Leishmania donovani. Kind of data set: Antileishmanial potency against visceral leishmaniasis. The data set is classed as cell-based. Conditions: read-out: EC50 (visceral leishmaniasis).

For `COc1ccc(N2C(=O)c3[nH]nc(CC(C)C)c3C2c2ccc(F)cc2)cc1` (stereo not shown) [Compound 1], the “Solubility (CLND)” value in data set [1] came to 107 µM (≈ 40.6 µg/mL). Besides, the CC50 in the data set on host B10R cells and in the data set with THP-1 cells was above 20000 nM in each case. The EC50 in the data set on HepG2 cells worked out at 63100 nM; in data set [2] it was 2000 nM; with L. major promastigotes, 4400 nM; in [4], 820 nM; in data set [5] it was 1300 nM; in data set [7] it was 2500 nM. Also, the results for the EC50 (with host THP-1 macrophages; in data set [8]) were 15800 nM and 2500 nM, respectively. Also, in [3], the “Microsomal stability (mouse) Clint” value is given as below 3.4 mL/min/g. For the same molecule, the “Microsomal stability (mouse) t1/2” value in [3] is given as above 20 min. In addition, in “Whole blood stability”, the Whole blood stability entry was “Pass”. Moreover, the “cytotoxicity to the host THP-1 cells (GI)” value in the data set on THP-1 cells was below 13 % GI. Moreover, the FaSSIF solubility in the data set “FaSSIF solubility” stood at 130 µg/mL. This molecule gave an AMP in data set [6] of 345 nm/s. Further, the PFI in “Property forecast index” is 8.4. This molecule also showed a Plasma protein binding in the data set “Plasma protein binding” of 97.5%. For the same molecule, in [8], the “inhibition of parasite growth (primary screen)” value (from here on “inhibition of parasite growth”) is reported as above 99%. Further, the “HSA Binding” value on human serum albumin was 96.4%.
As for `O=C(Nc1ccc(F)c(-c2ccn3c(N4CCOCC4)cnc3n2)c1)N1CCCC1` [GSK3494245], the EC50 in data set [9] was 1600 nM.
In the case of `COc1ccc(N2C(=O)c3[nH]nc(CC(C)C)c3C2c2ccccc2)cc1` (stereo not shown) [Compound 2], the “Solubility (CLND)” value in [1] was 90 µM (≈ 32.5 µg/mL). Also, the 50% effective concentration (EC50) in the data set with HepG2 cells turned out to be 79400 nM; in [2], 2400 nM; in the data set on L. major promastigotes, 4200 nM; in [5] it was 1700 nM; in [7], 3200 nM; in the data set on host THP-1 macrophages, 31600 nM. Moreover, in data set [8], the EC50 turned out to be 3700 nM. Moreover, in the data set with THP-1 cells, the “cytotoxicity to the host THP-1 cells (GI)” value is on record as below 13 % GI. Further, the CC50 in the data set with THP-1 cells is above 20000 nM. This molecule returned an AMP in data set [6] of 370 nm/s. In addition, the PFI in “Property forecast index” was 8.4. Moreover, in data set [8], the “inhibition of parasite growth” value is reported as above 99%. In addition, the “HSA Binding” value on human serum albumin was found to be 95.8%.
With `C[C@@H]1[C@H](O)[C@@H](C)/C=C/C=C/C=C/C=C/C=C/C=C/C=C/[C@H](O[C@@H]2O[C@H](C)[C@@H](O)[C@H](N)[C@@H]2O)C[C@@H]2O[C@](O)(C[C@@H](O)C[C@@H](O)[C@H](O)CC[C@@H](O)C[C@@H](O)CC(=O)O[C@H]1C)C[C@H](O)[C@H]2C(=O)O` [amphotericin B], the “concentration cytotoxic to the host cell” value in the data set on host macrophage amounted to 5.0 µM. For the same molecule, in [10], the EC50 came to 200 nM.
`COc1ccc(N2C(=O)c3[nH]nc(CC(C)C)c3C2c2ccc(C)cc2)cc1` (stereo not shown) [CMLD007430]: the “inhibition of parasite growth” value in data set [8] came to 0%.
Turning to `C[C@H]1CN(c2n[nH]c3nc(N[C@H]4CC[C@H](NS(=O)(=O)CCC(F)(F)F)CC4)ncc23)CCO1` [GSK3186899], the concentration for a half-maximal effect (EC50) in data set [9] was 1400 nM.
